Assay results published in paper PMC10812557, “Progressive Design of a Ranatuerin-2 Peptide from Amolops wuyiensis: Enhancement of Bioactivity and In Vivo Efficacy” (Antibiotics, 2023).
Peptide text beside a SMILES is read from it.

What was measured:
[1] = tested on: Galleria mellonella larvae; assay: Toxicity in waxworms with no MRSA treatment; assay type: in vivo; conditions: 10 mg/kg
[2] = tested on: P. aeruginosa (ATCC 9027); assay type: cell-based; conditions: ATCC 9027, 18 h
Procedure, shortened: (§1)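 Bacteria grown overnight at 37 °C were diluted to 5 × 10^5 CFU/mL in log phase and incubated 18 h at 37 °C with 2-fold peptide dilutions, with absorbance read at 550 nm. MIC was the lowest concentration preventing growth. For MBC, clear wells were plated on Mueller Hinton agar overnight, and MBC was the lowest concentration giving no colonies.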

[3] = tested on: K. pneumoniae (ATCC 43816); assay type: cell-based; conditions: ATCC 43816, 18 h
Procedure, shortened: as §1

E. coli (ATCC 8739) [4] = assay type: cell-based; conditions: ATCC 8739, 18 h
Procedure, shortened: as §1

H838 = assay type: cell-based, human; conditions: 24 h
Experimental: (§2) Five human cancer cell lines of non-small-cell lung cancer H838, human prostate carcinoma PC-3, human neuronal glioblastoma U251MG, human breast cancer cell MCF-7, and colorectal carcinoma HCT116 were used to detect the antiproliferative abilities of R2AW and its five analogues. According to the procedures in a previous article, cells (8000 cells/well) were seeded into the 96-well tissue culture plates and incubated at 37 °C with 5% CO2 overnight. The solutions of R2AW and its analogues at concentrations of 10^−4 M to 10^−9 M were prepared in the serum-free medium. Next, cells in each well were treated with 100 μL of each peptide solution for 24 h. Subsequently, 10 μL of 5 mg/mL MTT (3-(4, 5-Dimethylthiazol-2-yl-)-2, 5-Diphehyltetrazolium Bromide) was added to each well followed by 37 °C incubation for 2 h. After that, the liquid in each well was removed and 100 μL of DMSO was added to dissolve the purple formazan. The plate was placed on a shaking incubator for 10 min, and the absorbance was detected at 550 nm using a Synergy HT plate reader (Biotech, Minneapolis, MN, USA).

PC-3 = assay type: cell-based, human; conditions: 24 h
Experimental: as §2

MCF-7 = assay type: cell-based, human; conditions: 24 h
Experimental: as §2

U251MG = assay type: cell-based, human; conditions: 24 h
Experimental: as §2

HCT116 = assay type: cell-based, human; conditions: 24 h
Experimental: as §2

E. faecium (NTCC 12697) [5] = assay type: cell-based
Experimental: (§3) As a previous study described in detail, the ability of R2AW and its analogues to inhibit and eradicate the formation of biofilm was investigated. The MBIC is the lowest concentration which inhibits the formation of biofilm. The MBEC is the minimum concentration that eradicates biofilm. Six bacterial strains were used, as described above. Briefly, the bacteria were cultured and then diluted to 5 × 10^5 CFU/mL. In MBIC assays, 1 μL of each concentration of R2AW and its analogues (ranging from 512 × 10^2 μM to 100 μM) was mixed with 99 μL of diluted bacterial suspension in a 96-well plate for 16-20 h at 37 °C. As for MBEC assays, 100 μL of cultured bacteria were seeded in a 96-well plate and incubated on the shaking incubator at 37 °C overnight for biofilm formation. Subsequently, each well was rinsed twice with 100 μL sterile PBS to remove planktonic cells, and then replaced with 100 μL of each concentration (ranging from 512 μM to 1 μM) of peptides. After 24 h incubation, the biofilm was washed twice with 100 μL of PBS and fixed with methanol. Next, the same volume of 0.1% crystal violet solution (Sigma-Aldrich, Gillingham, UK) was added to each well to stain the biofilm. After that, 100 μL of 30% of acetic acid (Sigma-Aldrich, Gillingham, UK) was transferred to each well for dissolution. The solutions were transferred into a new 96-well plate and the absorbances of wells was monitored using a Synergy HT plate reader set to 595 nm.

MRSA (NCTC 12493) [6] = assay type: cell-based, methicillin-resistant Staphylococcus aureus; conditions: NCTC 12493
Experimental: as §3

[7] = tested on: P. aeruginosa (ATCC 9027); assay type: cell-based, Pseudomonas aeruginosa
Experimental: as §3

E. coli (ATCC 8739) [8] = assay type: cell-based, Escherichia coli
Experimental: as §3

[9] = tested on: five human cancer cell lines; assay type: cell-based; conditions: 24 h
Experimental: as §2

S. aureus (NCTC 10788) [10] = assay type: cell-based, Staphylococcus aureus
Experimental: as §3

[11] = tested on: K. pneumoniae (ATCC 43816); assay type: cell-based, Klebsiella pneumoniae
Experimental: as §3

E. faecium (NTCC 12697) [12] = assay: microbe, parasite or virus in culture; assay type: cell-based; conditions: NTCC 12697, 18 h
Excerpt: (§4) The MIC and MBC assays were used to assess the inhibitory activities of all 5 analogues of R2AW on the growth of planktonic microorganisms. The MIC is the lowest concentration that prevents the viable growth of bacteria. The MBC is the lowest concentration that results in bacterial death. Six microorganisms were used to detect the antimicrobial activity of peptides, including Gram-positive bacteria S. aureus (NCTC 10788), MRSA (NCTC 12493), Enterococcus faecalis (E. faecalis) (NCTC 12697), Gram-negative bacteria E. coli […], Klebsiella pneumoniae (K. pneumoniae) (ATCC 43816), and Pseudomonas aeruginosa (P. aeruginosa) (ATCC 9027). According to the assay described previously, the microorganisms were inoculated at 37 °C overnight and diluted to 5 × 10^5 CFU/mL after reaching the logarithmic growth period. The peptide stock solution at the concentration of 512 × 10^2 μM was prepared and diluted to 100 μM by a 2-fold dilution. One μL of each concentration of peptide solution was incubated with 99 μL of bacterial subculture in the 96-well plate for 18 h at 37 °C. The absorbance was determined at a wavelength of 550 nm using a Synergy HT plate reader (Bio Tek, Washington, DC, USA). […] As for those wells that were clearly visible, 20 μL of the solution was dropped onto the Mueller Hinton agar (MHA) dish and then incubated at 37 °C overnight. The lowest concentration with no colony growth was determined as the MBC.

MRSA (NCTC 12493) [13] = assay: microbe, parasite or virus in culture; assay type: cell-based; conditions: MRSA (NCTC 12493)
Excerpt: as §4

S. aureus (NCTC 10788) [14] = assay: microbe, parasite or virus in culture; assay type: cell-based; conditions: NCTC 10788, 18 h
Excerpt: as §4

SMILES: CSCC[C@H](NC(=O)[C@H](Cc1ccccc1)NC(=O)CN)C(=O)N[C@@H](CCCCN)C(=O)N[C@H](C(=O)N[C@@H](C)C(=O)N[C@@H](CCCCN)C(=O)N[C@@H](CC(N)=O)C(=O)N[C@H](C(=O)N[C@@H](C)C(=O)N[C@@H](CCCCN)C(=O)N[C@@H](CC(N)=O)C(=O)N[C@H](C(=O)N[C@@H](C)C(=O)N[C@@H](C)C(=O)N[C@H](C(=O)N[C@@H](CC(C)C)C(=O)N[C@@H](CC(C)C)C(=O)N[C@@H](CCCCN)C(=O)N[C@@H](CC(C)C)C(=O)N[C@@H](CC(C)C)C(=O)N[C@@H](CCCCN)C(N)=O)[C@@H](C)O)C(C)C)C(C)C)[C@@H](C)O [[Lys^4,19, Leu^20]R2AW(1-22)-NH2] (H-GFMKTAKNVAKNVAATLLKLLK-NH2)
- death of larvae with no MRSA treatment [1]: no death
- MBC [2]: 37.7 µg/mL
- MIC [2]: 18.9 µg/mL
- MBC [3]: 18.9 µg/mL
- MIC [3]: 9.4 µg/mL
- MBC (E. coli (ATCC 8739) [4]): 9.4 µg/mL
- MIC (E. coli (ATCC 8739) [4]): 4.7 µg/mL
- IC50 (H838): 7.83 µM
- IC50 (PC-3): 3.67 µM
- IC50 (MCF-7): 10.6 µM
- IC50 (U251MG): 12.4 µM
- IC50 (HCT116): 9.28 µM
- MBEC (E. faecium (NTCC 12697) [5]): > 512 µM
- MBIC (E. faecium (NTCC 12697) [5]): 8 µM
- MBEC (MRSA (NCTC 12493) [6]): > 512 µM
- MBIC (MRSA (NCTC 12493) [6]): 4 µM
- MBEC [7]: 512 µM
- MBIC [7]: 16 µM
- MBEC (E. coli (ATCC 8739) [8]): 256 µM
- MBIC (E. coli (ATCC 8739) [8]): 4 µM
- IC50 [9]: 3.67 to 12 µM
- MBEC (S. aureus (NCTC 10788) [10]): 256 µM
- MBIC (S. aureus (NCTC 10788) [10]): 4 µM
- MBEC [11]: 256 µM
- MBIC [11]: 8 µM
- MBC (E. faecium (NTCC 12697) [12]): 18.9 µg/mL
- MIC (E. faecium (NTCC 12697) [12]): 9.4 µg/mL
- MBC (MRSA (NCTC 12493) [13]): 4.7 µg/mL
- MIC (MRSA (NCTC 12493) [13]): 4.7 µg/mL
- MBC (S. aureus (NCTC 10788) [14]): 4.7 µg/mL
- MIC (S. aureus (NCTC 10788) [14]): 4.7 µg/mL
